Data taken from the NIST ThermoML archive (doi:10.1007/s10765-005-5567-5).
± gives the expanded uncertainty stated by the source.

Experiment: mn = molality of the nth substance listed, in mol/kg
Conditions: Liquid; for viscosity: Capillary tube (Ostwald / Ubbelohde) method; for thermal conductivity: Coaxial cylinder method

O=S(=O)([O-])[O-].[K+].[K+] [potassium sulfate] + O
Conditions	thermal conductivity, 10000 kPa [W/m/K]	thermal conductivity, 30000 kPa [W/m/K]	viscosity, 10 kPa [mPa·s]	viscosity, 20 kPa [mPa·s]	viscosity, 30 kPa [mPa·s]
397.25 K, m1 = 0.305	–	–	–	0.2531 ± 0.0079	0.2565 ± 0.008
398.55 K, m1 = 0.0658	–	–	0.2289 ± 0.0071	0.2321 ± 0.0072	0.236 ± 0.0073
422.05 K, m1 = 0.407	–	–	0.2131 ± 0.0066	0.2154 ± 0.0067	0.2189 ± 0.0068
423 K, m1 = 0.499	0.678 ± 0.019	0.69 ± 0.019	–	–	–
423.3 K, m1 = 0.782	0.671 ± 0.019	0.684 ± 0.019	–	–	–
423.55 K, m1 = 0.305	–	–	0.204 ± 0.0064	0.2068 ± 0.0064	0.2096 ± 0.0065
423.6 K, m1 = 0.239	0.683 ± 0.019	0.696 ± 0.02	–	–	–
423.85 K, m1 = 0.0658	–	–	0.1881 ± 0.0059	0.1926 ± 0.006	0.196 ± 0.0061
425.45 K, m1 = 0.2055	–	–	0.1946 ± 0.0061	0.1974 ± 0.0062	0.2 ± 0.0062
446.85 K, m1 = 0.407	–	–	0.1811 ± 0.0056	0.184 ± 0.0057	0.1867 ± 0.0058
447.35 K, m1 = 0.0658	–	–	0.1613 ± 0.0051	0.1645 ± 0.0052	0.166 ± 0.0052
448.1 K, m1 = 0.782	0.665 ± 0.019	0.681 ± 0.019	–	–	–
448.35 K, m1 = 0.2055	–	–	0.1679 ± 0.0052	0.1705 ± 0.0053	0.1732 ± 0.0054
448.55 K, m1 = 0.305	–	–	0.1735 ± 0.0054	0.1769 ± 0.0055	0.179 ± 0.0056
448.7 K, m1 = 0.239	0.678 ± 0.019	0.691 ± 0.019	–	–	–
449.8 K, m1 = 0.499	0.672 ± 0.019	0.686 ± 0.019	–	–	–
470.75 K, m1 = 0.407	–	–	0.1586 ± 0.005	0.1605 ± 0.005	0.1641 ± 0.0051
472.05 K, m1 = 0.0658	–	–	0.1403 ± 0.0044	0.1436 ± 0.0045	0.146 ± 0.0046
472.9 K, m1 = 0.499	0.659 ± 0.019	0.676 ± 0.019	–	–	–
473.4 K, m1 = 0.239	0.665 ± 0.019	0.681 ± 0.019	–	–	–
473.8 K, m1 = 0.782	0.652 ± 0.018	0.671 ± 0.019	–	–	–
475.85 K, m1 = 0.305	–	–	0.1492 ± 0.0047	0.1521 ± 0.0048	0.1545 ± 0.0048
477.45 K, m1 = 0.2055	–	–	0.143 ± 0.0045	0.1456 ± 0.0046	0.1482 ± 0.0047
496.35 K, m1 = 0.0658	–	–	0.1244 ± 0.0039	0.1276 ± 0.004	0.13 ± 0.0041
497.45 K, m1 = 0.2055	–	–	0.1294 ± 0.0041	0.1322 ± 0.0042	0.1348 ± 0.0042
498.3 K, m1 = 0.499	0.639 ± 0.018	0.657 ± 0.018	–	–	–
498.5 K, m1 = 0.239	0.644 ± 0.018	0.664 ± 0.019	–	–	–
498.55 K, m1 = 0.407	–	–	0.1388 ± 0.0044	0.1409 ± 0.0044	0.1444 ± 0.0045
498.6 K, m1 = 0.782	0.632 ± 0.018	0.65 ± 0.018	–	–	–
499.95 K, m1 = 0.305	–	–	0.1332 ± 0.0042	0.1369 ± 0.0043	0.14 ± 0.0044
523.05 K, m1 = 0.2055	–	–	0.1162 ± 0.0037	0.1191 ± 0.0038	0.1219 ± 0.0039
523.2 K, m1 = 0.499	0.61 ± 0.017	0.63 ± 0.018	–	–	–
523.3 K, m1 = 0.239	0.617 ± 0.017	0.637 ± 0.018	–	–	–
523.85 K, m1 = 0.407	–	–	0.1248 ± 0.0039	0.1286 ± 0.0041	0.1307 ± 0.0041
523.9 K, m1 = 0.782	0.602 ± 0.017	0.623 ± 0.018	–	–	–
524.45 K, m1 = 0.0658	–	–	0.1097 ± 0.0035	0.1135 ± 0.0036	0.116 ± 0.0037
527.35 K, m1 = 0.305	–	–	0.1185 ± 0.0038	0.1216 ± 0.0039	0.1243 ± 0.0039
541.55 K, m1 = 0.407	–	–	0.1171 ± 0.0037	0.12 ± 0.0038	0.1236 ± 0.0039
545.05 K, m1 = 0.0658	–	–	0.1008 ± 0.0032	0.1045 ± 0.0033	0.1072 ± 0.0034
547.9 K, m1 = 0.239	0.584 ± 0.016	0.61 ± 0.017	–	–	–
548.2 K, m1 = 0.499	0.577 ± 0.016	0.604 ± 0.017	–	–	–
548.45 K, m1 = 0.305	–	–	0.1087 ± 0.0035	0.1119 ± 0.0036	0.115 ± 0.0037
548.5 K, m1 = 0.782	0.57 ± 0.016	0.598 ± 0.017	–	–	–
550.55 K, m1 = 0.2055	–	–	0.1039 ± 0.0033	0.1072 ± 0.0034	0.1105 ± 0.0035
571.55 K, m1 = 0.0658	–	–	0.0902 ± 0.0029	0.094 ± 0.003	0.0972 ± 0.0031
573.2 K, m1 = 0.499	0.534 ± 0.015	0.568 ± 0.016	–	–	–
573.2 K, m1 = 0.782	0.525 ± 0.015	0.56 ± 0.016	–	–	–
573.35 K, m1 = 0.305	–	–	0.0976 ± 0.0031	0.1016 ± 0.0033	0.1035 ± 0.0033
573.8 K, m1 = 0.239	0.54 ± 0.015	0.574 ± 0.016	–	–	–
574.35 K, m1 = 0.2055	–	–	0.094 ± 0.003	0.0973 ± 0.0031	0.1014 ± 0.0033
575.25 K, m1 = 0.407	–	–	0.1021 ± 0.0033	0.1067 ± 0.0034	0.1102 ± 0.0035
